{"source": "patent US11198850B2", "about": "“Method for manufacturing telencephalon or progenitor tissue thereof” (RIKEN, priority 2013, dated 2021)", "test_system": "hESC-derived hippocampal neurons", "experiment": "Whole cell patch clamp of hippocampal neurons from dispersion culture of hESC-derived hippocampal tissue (sEPSC)", "format": "cell-based, human", "details": "DNQX 10 μM; voltage held at −60 mV; day 53 after dispersion", "experimental": "By a method similar to that in Example 7-1, continuous hippocampal tissues were subjected to dispersion culture. In this experiment, flat plane culture was performed by seeding on a glass or plastic dish, slide and the like. For culture, a glass or plastic surface was coated with poly-D-Lysine (100 μg/ml) at 37° C. for 3 hr, and Laminin 20 μg/ml/Fibronectin 8 μg/ml overnight at 37° C.\nThe culture medium used for day 1-2 of dispersion was Neurobasal medium (Gibco/Invitrogen) added with 2% B27 supplement without vitamin A (Gibco/Invitrogen), 2 mM L-glutamine, 1% FBS, 20 ng/ml BDNF, 20 ng/ml NT-3, and 10 μM Y-27632. From day 3 of culture, Neurobasal medium (Gibco/Invitrogen) added with 2% B27 supplement without vitamin A (Gibco/Invitrogen), 2 mM L-glutamine, 10% FBS, BDNF 20 ng/ml, and NT-3 20 ng/ml was used and a half amount of the medium was exchanged every three days. […] Also, the cells obtained by dispersion culture by the same method were electrophysiologically analyzed by the Patch clamp technique. […] For sEPSC, time-course electric current was measured when the voltage was maintained at −60 mV, and the medicament used was DNQX (sigma, D0540) at a final concentration of 10 μM. As the action potential, the membrane potential upon […] stimulation was measured.", "data": [{"smiles": "O=[N+]([O-])c1cc2nc(O)c(O)nc2cc1[N+](=O)[O-]", "note": "[DNQX]", "values": [{"measurement": "spontaneous excitatory postsynaptic current (sEPSC)", "value": "inhibited"}]}]}
